Experimental data published in patent US20100204045A1, “Systemicity Enhancers” (BASF SE, priority 2007, published 2010).

Test system: aphids
Experiment: Root systemicity of fipronil with polymers: wheat plants in vermiculite drenched, infested with aphids, aphid population counted
Format: in vivo, aphids on wheat plants
Settings: 4 days after infestation, relative to plants not treated with fipronil
Experimental: To test the root systemicity of fipronil with polymers according to the invention, wheat plants in vermiculite were drenched with 20 ml fipronil/polymer (1:1 wt) solutions in Hoagland solution/acetone mixtures (0.6 v % acetone). Two fipronil and polymer concentrations were used, 3 ppm and 6 ppm. As reference fipronil solutions in Hoagland solution/acetone mixtures without polymer were used. Hoagland solution consists of the following ingredients:
0.25 v % of 1M KNO3 solution in water, 0.1 v % of 1 M MgSO4 solution in water, 0.05 v % of 1M KH2PO4 solution in water, 0.25 v % 1M Ca(NO3)2) solution in water, 0.05 v % of a trace solution consisting of 2.86 g/l H3BO3, 1.81 g/l MnCl2*4H2O, 0.22 g/l ZnSO4*7H2O, 0.08 g/l CuSO4*5H2O, 0.016 g/l MoO3 in water, 0.075 v % Sequestrene 138 Fe consisting of 30 g/l sodium ferric ethylenediamine di-(o-hydroxyphenylacetate) in water, 99.225 v % water sterilized and pH adjusted to 6-6.5 with NaOH.
The plants were then infested with aphids. After 4 days the aphid population on the wheat plants was counted. The results of fipronil and fipronil with polymer are related to the aphid population on plants that had not been treated with fipronil.

N#Cc1nn(-c2c(Cl)cc(C(F)(F)F)cc2Cl)c(N)c1[S+]([O-])C(F)(F)F (stereo not shown) [Reference A, fipronil]
Aphid population (Table 1, 3 ppm fipronil (and polymer, 1:1 wt)): 51%
Aphid population (Table 1, 6 ppm fipronil (and polymer, 1:1 wt)): 23%
Aphid population (Table 2, 3 ppm fipronil (and polymer, 1:1 wt)): 23%
Aphid population (Table 2, 6 ppm fipronil (and polymer, 1:1 wt)): 12%
